± gives the expanded uncertainty stated by the source.
Experiments:
[1] = molar heat capacity at constant pressure; settings: Liquid, Thermal relaxation method
[2] = Liquid, Pycnometric method

C=C(F)C(F)(F)F [2,3,3,3-tetrafluoro-1-propene]
Settings	mass density, [2] [kg/m3]	molar heat capacity at constant pressure, [1] [J/K/mol]
310 K, 1000 kPa	1046.5 ± 4.2	–
310 K, 2000 kPa	1056.3 ± 4.2	165.36 ± 8
310 K, 3000 kPa	1065.2 ± 4.3	161.94 ± 8
310 K, 4000 kPa	1072.8 ± 4.3	152.82 ± 8
310 K, 5000 kPa	1080.6 ± 4.3	153.96 ± 8
320 K, 2000 kPa	1013.8 ± 4.1	173.34 ± 9.1
320 K, 3000 kPa	1025.1 ± 4.1	167.64 ± 8
320 K, 4000 kPa	1035.3 ± 4.2	160.8 ± 8
320 K, 5000 kPa	1044.8 ± 4.2	157.38 ± 8
330 K, 2000 kPa	964.2 ± 3.9	185.89 ± 9.1
330 K, 3000 kPa	979.2 ± 3.9	179.05 ± 9.1
330 K, 4000 kPa	992.7 ± 4	168.78 ± 8
330 K, 5000 kPa	1004.6 ± 4	163.08 ± 8
340 K, 2000 kPa	903 ± 3.6	205.27 ± 10
340 K, 3000 kPa	926.7 ± 3.7	187.03 ± 9.1
340 K, 4000 kPa	945.3 ± 3.8	177.9 ± 9.1
340 K, 5000 kPa	961.3 ± 3.9	169.92 ± 8
350 K, 3000 kPa	861.8 ± 3.5	217.82 ± 11
350 K, 4000 kPa	891.3 ± 3.6	196.15 ± 10
350 K, 5000 kPa	913.1 ± 3.7	182.47 ± 9.1
360 K, 3000 kPa	751.9 ± 3.1	297.65 ± 15
360 K, 4000 kPa	818.5 ± 3.3	222.38 ± 11
360 K, 5000 kPa	853.9 ± 3.4	197.29 ± 10
